Values of other authors as cited in patent US9993560B2, “Rifaximin complexes” (Cipla Limited, priority 2008, dated 2018).

solubility in water (water)	solubility compared with other known forms of rifaximin	Structure (SMILES)
sparingly soluble	–	CO[C@H]1/C=C/O[C@@]2(C)Oc3c(C)c(O)c4c(O)c(c5c(nc6cc(C)ccn65)c4c3C2=O)NC(=O)/C(C)=C\C=C\[C@H](C)[C@H](O)[C@@H](C)[C@@H](O)[C@@H](C)[C@H](OC(C)=O)[C@@H]1C [rifaximin, (2S, 16Z, 18E, 20S, 21S, 22R, 23R, 24R, 25S, 26S, 27S, 28E)-5,6,21,23,25-pentahydroxy-27-methoxy-2,4,11,16,20,22,24,26-octamethyl-2,7-(epoxypentadeca-[1,11,13]-trienimino)benzofuro-[4,5-e]-pyrido-[1,2-a]-benzimidazole-1,15-(2H)-dione, 25-acetate]
–	least soluble known form of rifaximin	CO[C@H]1/C=C/O[C@@]2(C)Oc3c(C)c(O)c4c(O)c(c5c(nc6cc(C)ccn65)c4c3C2=O)NC(=O)/C(C)=C\C=C\[C@H](C)[C@H](O)[C@@H](C)[C@@H](O)[C@@H](C)[C@H](OC(C)=O)[C@@H]1C [β-form of rifaximin]
